In patent US20130267494A1, “1,4-OXAZEPANE DERIVATIVES” (priority 2010, published 2013):
Where a name gives a salt, the structure may show the parent alone. Read-outs that look alike come from different tables or passages of the source.

Tests used:
Type in all cases: cell-based
[1] = biological target: T1, human norepinephrine transporter (Homo sapiens, UniProt P23975); assay: Inhibitory action on human norepinephrine transporter ([3H]-norepinephrine uptake in CHO cells); conditions: CHO, relative to inhibitory activity of 10 μM DMI as 100%
T1 construct: expressed in transfected cells
From the text: (§1) Human serotonin transporter cDNA was amplified from human brain cDNA library by PCR, and inserted into pCRII-TOPO vector (manufactured by Invitrogen). The base sequence was confirmed and modified, and subcloned to pcDNA3.1 vector (manufactured by Invitrogen), whereby a human serotonin transporter expression plasmid was constructed. Human norepinephrine transporter cDNA was purchased from Invitrogen, and the base sequence was confirm and modified, and subcloned to pcDNA3.1 vector, whereby a human norepinephrine transporter expression plasmid was constructed.
(§2) The monoamine transporter expression plasmids thus prepared were introduced into CHO-K1 cells using FuGENE6 (manufactured by Roche Diagnostics) and according to the attached protocol, whereby each expressing cell was established.
CHO cells stably expressing human norepinephrine transporter were used for the measurement of human norepinephrine transporter inhibitory activity. Unless otherwise indicated, these CHO cells were cultured in Ham/F12 medium (Invitrogen) containing 10% fetal bovine serum (MOREGATE).
(§3) The cultured cells that reached almost confluent were rinsed with PBS (Invitrogen), detached with Trypsin/EDTA (Invitrogen), and collected by a centrifugal operation. The obtained cells were counted, and diluted to 3×10^5 cells per 1 mL medium, and the mixture was dispensed to a 96 well white plate (Corning) at 100 μL per well, and cultured overnight in a CO2 incubator.
(§4) Then, an assay buffer (126 mM NaCl, 4.95 mM KCl, 1.26 mM KH2PO4, 1.26 mM MgSO4, 10 mM HEPES, 2.32 mM CaCl2, 5.52 mM Glucose, 0.5% BSA) was prepared, the medium in the cell plate was removed and the assay buffer was added by 80 μL. A test compound was diluted with the assay buffer to a 10-fold concentration of the final concentration, and the mixture was dispensed to a 96 well polypropylene plate. The diluted test compound was dispensed to the cell plate by 10 μL. [3H]-Norepinephrine (GE Healthcare) was diluted with the assay buffer to 200 nM, and the mixture was dispensed to the cell plate by 10 μL. At 45 min from [3H]-norepinephrine addition, the assay buffer was removed by suction, and the plate was washed twice with 150 μL of PBS (Invitrogen) per well. Microscinti20 (PerkinElmer) was dispensed to each well by 100 μL, and the mixture was stirred for about 30 min. The radioactivity was measured by TopCount (PerkinElmer).
The inhibitory activity of each compound (10 μM) was calculated as a relative activity value based on the inhibitory activity of 10 μM DMI (norepinephrine transporter inhibitor) as 100%.
The inhibitory activity of each compound (1 μM) was calculated as a relative activity value based on the inhibitory activity of 10 μM DMI (norepinephrine transporter inhibitor) as 100%.

[2] = biological target: T2, human dopamine transporter (Homo sapiens, UniProt Q01959); assay: Inhibitory action on human dopamine transporter ([3H]-dopamine uptake in CHO cells); conditions: CHO, compound 1 μM; relative to inhibitory activity of 100 μM Nomifensine as 100%; read-out: inhibitory rate (%)
T2 construct: expressed in transfected cells
From the text: SRα promoter contained in pTB1411 described in JP-A-H5-076385 was cleaved with restriction enzyme […](manufactured by TAKARA BIO INC.), blunt-ended, further cleaved with restriction enzyme EcoRI (manufactured by TAKARA BIO INC.), and fragmented. On the other hand, pCI vector was cleaved with restriction enzyme BglII (manufactured by TAKARA BIO INC.), blunt-ended with T4 DNA polymerase, and further cleaved with restriction enzyme EcoRI (manufactured by TAKARA BIO INC.). Into this site was inserted an SRa promoter fragment to give pCI-SRa. Then, pCI-SRa was cleaved with restriction enzyme ClaI (manufactured by TAKARA BIO INC.) and blunt-ended. Into this site was inserted a 1.63 Kb fragment obtained by cleaving pGFP-C1 (manufactured by TOYOBO) with restriction enzyme Bsu36I (manufactured by Daiichi Pure Chemicals Co., Ltd.) followed by blunt-ending, whereby pMSRα neo was prepared. Human dopamine transporter cDNA was amplified from human substantia nigra cDNA library by PCR, and inserted into the pCRII vector (manufactured by Invitrogen). The base sequence was confirmed, modified and subcloned to pMSRα neo, whereby a human dopamine transporter expression plasmid was constructed.
as §2
CHO cells stably expressing human dopamine transporter were used for the measurement of human dopamine transporter inhibitory activity. Unless otherwise indicated, these CHO cells were cultured in Ham/F12 medium (Invitrogen) containing 10% fetal bovine serum (MOREGATE).
as §3, with “One day before the assay, the cultured” for “The cultured”
as §4, with “On the day of the test,” for “Then,”, “[3H]-Dopamine” for “[3H]-Norepinephrine”, “nM, cold dopamine was diluted to 10 μM,” for “nM,”, “60” for “45”, “[3H]-dopamine” for “[3H]-norepinephrine”
The inhibitory activity of each compound (10 μM) was calculated as a relative activity value based on the inhibitory activity of 100 μM Nomifensine (dopamine transporter inhibitor) as 100%.
The inhibitory activity of each compound (1 μM) was m calculated as a relative activity value based on the inhibitory activity of 100 μM Nomifensine (dopamine transporter inhibitor) as 100%.

[3] = biological target: T3, human serotonin transporter (Homo sapiens, UniProt P31645); assay: Inhibitory action on human serotonin transporter ([3H]-5-hydroxytryptamine uptake in CHO cells); conditions: CHO, compound 1 μM; relative to inhibitory activity of 10 μM Paroxetine as 100%; read-out: inhibitory rate (%)
T3 construct: expressed in transfected cells
From the text: as §1, §2
CHO cells stably expressing a human serotonin transporter were used for the measurement of human serotonin transporter inhibitory activity. Unless particularly indicated, these CHO cells were cultured in a Ham/F12 medium (Invitrogen) containing 10% fetal bovine serum (MOREGATE).
as §3, with “medium,” for “medium, and”
as §4, with “[3H]-5-Hydroxytryptamine” for “[3H]-Norepinephrine”, “20” for “45”, “[3H]-5-hydroxytryptamine” for “[3H]-norepinephrine”
The inhibitory activity of each compound (10 μM) was calculated as a relative activity value based on the inhibitory activity of 10 μM Paroxetine (serotonin transporter inhibitor) as 100%.
In addition, the inhibitory activity of each compound (1 μM) was calculated as a relative activity value based on the inhibitory activity of 10 μM Paroxetine (serotonin transporter inhibitor) as 100%.

[4] = compound 1 μM, read-out: inhibitory rate (%)
[5] = read-out: inhibitory rate (%), compound 1 μM

T2 sequence (Q01959 whole entry): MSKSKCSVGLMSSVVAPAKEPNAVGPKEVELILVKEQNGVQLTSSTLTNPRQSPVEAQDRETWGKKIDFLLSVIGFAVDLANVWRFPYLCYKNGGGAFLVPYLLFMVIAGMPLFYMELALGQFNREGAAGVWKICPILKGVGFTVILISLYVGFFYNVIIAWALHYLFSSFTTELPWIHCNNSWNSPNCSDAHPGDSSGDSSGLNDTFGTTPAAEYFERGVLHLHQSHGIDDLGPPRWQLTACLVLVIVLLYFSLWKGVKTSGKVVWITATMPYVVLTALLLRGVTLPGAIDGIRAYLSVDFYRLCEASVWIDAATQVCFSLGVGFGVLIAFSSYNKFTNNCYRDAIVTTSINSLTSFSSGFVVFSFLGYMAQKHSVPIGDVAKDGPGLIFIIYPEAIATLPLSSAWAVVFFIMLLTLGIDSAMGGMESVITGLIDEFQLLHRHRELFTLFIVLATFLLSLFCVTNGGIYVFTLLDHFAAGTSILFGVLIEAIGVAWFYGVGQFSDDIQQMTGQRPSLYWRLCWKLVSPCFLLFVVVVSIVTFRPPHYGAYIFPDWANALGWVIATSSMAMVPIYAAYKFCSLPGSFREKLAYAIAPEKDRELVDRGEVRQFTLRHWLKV
T3 sequence (P31645 whole entry): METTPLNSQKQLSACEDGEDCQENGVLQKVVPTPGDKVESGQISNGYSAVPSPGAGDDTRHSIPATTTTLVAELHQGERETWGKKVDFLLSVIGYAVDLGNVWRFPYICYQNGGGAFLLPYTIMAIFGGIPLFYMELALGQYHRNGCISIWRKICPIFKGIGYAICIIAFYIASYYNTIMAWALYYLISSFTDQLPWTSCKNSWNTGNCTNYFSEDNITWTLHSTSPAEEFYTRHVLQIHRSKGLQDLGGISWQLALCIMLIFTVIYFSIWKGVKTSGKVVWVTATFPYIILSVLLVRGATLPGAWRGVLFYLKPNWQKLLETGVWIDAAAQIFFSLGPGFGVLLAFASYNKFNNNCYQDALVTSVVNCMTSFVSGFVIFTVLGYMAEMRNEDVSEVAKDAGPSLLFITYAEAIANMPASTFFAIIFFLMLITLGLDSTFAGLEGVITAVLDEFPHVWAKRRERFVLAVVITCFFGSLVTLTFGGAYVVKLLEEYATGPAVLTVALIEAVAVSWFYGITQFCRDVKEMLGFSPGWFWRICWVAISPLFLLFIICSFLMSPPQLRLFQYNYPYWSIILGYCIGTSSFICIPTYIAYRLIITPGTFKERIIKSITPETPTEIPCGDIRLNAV
T1 sequence (P23975 whole entry): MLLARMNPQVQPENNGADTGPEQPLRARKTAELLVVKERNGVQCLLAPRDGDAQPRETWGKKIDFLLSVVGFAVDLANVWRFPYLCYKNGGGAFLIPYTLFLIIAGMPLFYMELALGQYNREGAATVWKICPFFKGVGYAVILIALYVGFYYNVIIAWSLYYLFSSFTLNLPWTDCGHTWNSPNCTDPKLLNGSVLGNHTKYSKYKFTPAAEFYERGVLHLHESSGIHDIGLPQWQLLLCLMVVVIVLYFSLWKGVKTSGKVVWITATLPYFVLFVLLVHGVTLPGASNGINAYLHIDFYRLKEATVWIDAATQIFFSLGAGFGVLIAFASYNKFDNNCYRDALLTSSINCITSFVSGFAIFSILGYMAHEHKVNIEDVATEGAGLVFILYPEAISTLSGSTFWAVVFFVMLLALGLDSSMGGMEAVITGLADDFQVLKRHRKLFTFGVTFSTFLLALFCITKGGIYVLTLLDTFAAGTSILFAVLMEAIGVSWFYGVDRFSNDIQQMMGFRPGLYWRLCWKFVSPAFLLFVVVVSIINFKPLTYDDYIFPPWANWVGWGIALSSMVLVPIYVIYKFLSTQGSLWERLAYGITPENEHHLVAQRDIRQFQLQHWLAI

Row | inhibition at 1 µM [1, 4] [%] | inhibition at 1 µM [2] [%] | inhibition at 1 µM [3] [%] | SMILES | inhibition at 1 µM [1, 5] [%]
1 | 91 | 2 | 64 | CO[C@]1(CNS(C)(=O)=O)CNCCO[C@@H]1c1ccc(Cl)c(Cl)c1 (racemic) [Example 523, N-{[(6RS,7SR)-7-(3,4-dichlorophenyl)-6-methoxy-1,4-oxazepan-6-yl]methyl}methanesulfonamide monohydrochloride] | –
2 | 102 | 38 | 91 | CS(=O)(=O)C[C@@]1(O)CNCCO[C@@H]1c1ccc(Cl)c(F)c1 (racemic) [Example 538, (6RS,7RS)-7-(4-chloro-3-fluorophenyl)-6-[(methylsulfonyl)methyl]-1,4-oxazepan-6-ol monohydrochloride] | –
3 | 105 | 24 | 56 | Cc1ccc([C@H]2OCCNC[C@@H]2CNS(C)(=O)=O)cc1Cl (relative stereo) [Example 409, N-{[(6R,7S)-7-(3-chloro-4-methylphenyl)-1,4-oxazepan-6-yl]methyl}methanesulfonamide monohydrochloride] | –
4 | 98 | 1 | 46 | CO[C@@]1(CNC(C)=O)CNCCO[C@H]1c1ccc(Cl)c(F)c1 (relative stereo) [Example 561, N-{[(6R*,7S*)-7-(4-chloro-3-fluorophenyl)-6-methoxy-1,4-oxazepan-6-yl]methyl}acetamide monohydrochloride (retention time long)] | –
5 | 103 | 2 | 87 | CC(=O)N(C)C[C@]1(O)CNCCO[C@H]1c1ccc(Cl)c(F)c1 (relative stereo) [Example 563, N-{[(6R*,7S*)-7-(4-chloro-3-fluorophenyl)-6-hydroxy-1,4-oxazepan-6-yl]methyl}-N-methylacetamide monohydrochloride (retention time short)] | –
6 | 96 | 75 | 84 | CS(=O)(=O)NC[C@@H]1CNCCO[C@H]1c1ccc(Cl)c(Cl)c1 [Example 34, N-{[(6S,7R)-7-(3,4-dichlorophenyl)-1,4-oxazepan-6-yl]methyl}methanesulfonamide monohydrochloride] | –
7 | 99 | 63 | 86 | NS(=O)(=O)NC[C@@H]1CNCCO[C@H]1c1ccc(Cl)c(Cl)c1 [Example 35, N-{[(6S,7R)-7-(3,4-dichlorophenyl)-1,4-oxazepan-6-yl]methyl}sulfamide monohydrochloride] | –
8 | 104 | 27 | 70 | OC[C@@H](O)[C@@H]1OCCNC[C@H]1c1ccc(Cl)c(Cl)c1 [Example 46, (1R)-1-[(6R,7R)-6-(3,4-dichlorophenyl)-1,4-oxazepan-7-yl]ethane-1,2-diol monohydrochloride] | –

Row | SMILES | inhibition at 1 µM [1, 4] [%] | inhibition at 1 µM [2] [%] | inhibition at 1 µM [3] [%] | inhibition at 1 µM [1, 5] [%]
9 | O=C(O)c1cccn(C[C@@H]2CNCCO[C@H]2c2ccc(Cl)c(F)c2)c1=O (racemic) [Example 588, 1-{[(6RS, 7SR)-7-(4-chloro-3-fluoro-phenyl)-1,4-oxazepan-6-yl]methyl}-2-oxo-1,2-dihydro-pyridine-3-carboxylic acid] | 104 | 12 | 43 | –
10 | O=c1ccccn1C[C@@H]1CNCCO[C@H]1c1ccc(Cl)c(F)c1 [Example 42, 1-{[(6S,7R)-7-(4-chloro-3-fluorophenyl)-1,4-oxazepan-6-yl]methyl}pyridin-2(1H)-one monohydrochloride] | 102 | 47 | 87 | –
11 | OC[C@@]1(c2ccc(Cl)c(Cl)c2)CCNCCO1 [Example 47, [(7S)-7-(3,4-dichlorophenyl)-1,4-oxazepan-7-yl]methanol monohydrochloride] | – | 9 | 82 | 99
12 | OCC1CNCCOC1c1ccc(Cl)c(Cl)c1 (stereo not drawn) [Example 48, [(6R*,7R*)-7-(3,4-dichlorophenyl)-1,4-oxazepan-6-yl]methanol monohydrochloride (retention time short)] | – | 22 | 98 | 99
